Laboratory results taken from patent US20240109853A1 (Shanghai Yao Yuan Biotechnology Co., Ltd., priority 2020, published 2024).
Like-named read-outs stand apart in the source and are kept apart here.

How the values were obtained:
ALPK1 = ALPK1 (Homo sapiens (Human), UniProt Q96QP1); test: ALPK1 in vitro kinase assay (HTRF of TIFA phosphorylation); assay type: biochemical
hALPK1-V1092A = hALPK1-V1092A (Homo sapiens (Human), UniProt Q96QP1, V1092A); test: cell-based
Experimental: Accordingly, we used IL-8 secretion as an indicator of activated ALPK1 inhibition in cells expressing these mutations.
Transfection was performed according to manufacturer's protocols (Lipofectamine™ 3000, ThermoFisher). Transfected cells were selected, seeded onto 96-well plates and treated with serial dilutions of the test compounds for 6.5 hr. Following treatment, cell viability was determined using a luminescent cell viability assay (Cell Counting-Lite Assay or “CCL Assay” from Vazyme Biotech Co., Ltd.) and cell free supernatants were collected and analyzed for IL-8 protein by IL-8 ELISA as described above.
Fresh medium and compound were added at 18 hours. Cell viability and IL-8 secretion were determined 6 hours after the second addition of compound, using the CCL assay and IL-8 ELISA as described above.

[1] = tested on: ALPK1-dependent NFκB reporter gene activation in HEK293 cells stably expressing an NF-kB reporter (G9 cells); test: NFκB gene reporter alkaline phosphatase assay; assay type: cell-based; settings: Homo sapiens, HEK293; read-out: NFkB assay IC50
How it was run: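 Compounds, serially diluted, were added to attached HEK293-derived G9 reporter cells for 30 min prior to stimulation with the fluoro-heptose ADP agonist. Secreted alkaline phosphatase was quantified colorimetrically using pNPP.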

[2] = ALPK1 2 nM, TIFA substrate, ADP-Heptose activator, HTRF readout

Sequence of ALPK1 (Q96QP1 whole entry): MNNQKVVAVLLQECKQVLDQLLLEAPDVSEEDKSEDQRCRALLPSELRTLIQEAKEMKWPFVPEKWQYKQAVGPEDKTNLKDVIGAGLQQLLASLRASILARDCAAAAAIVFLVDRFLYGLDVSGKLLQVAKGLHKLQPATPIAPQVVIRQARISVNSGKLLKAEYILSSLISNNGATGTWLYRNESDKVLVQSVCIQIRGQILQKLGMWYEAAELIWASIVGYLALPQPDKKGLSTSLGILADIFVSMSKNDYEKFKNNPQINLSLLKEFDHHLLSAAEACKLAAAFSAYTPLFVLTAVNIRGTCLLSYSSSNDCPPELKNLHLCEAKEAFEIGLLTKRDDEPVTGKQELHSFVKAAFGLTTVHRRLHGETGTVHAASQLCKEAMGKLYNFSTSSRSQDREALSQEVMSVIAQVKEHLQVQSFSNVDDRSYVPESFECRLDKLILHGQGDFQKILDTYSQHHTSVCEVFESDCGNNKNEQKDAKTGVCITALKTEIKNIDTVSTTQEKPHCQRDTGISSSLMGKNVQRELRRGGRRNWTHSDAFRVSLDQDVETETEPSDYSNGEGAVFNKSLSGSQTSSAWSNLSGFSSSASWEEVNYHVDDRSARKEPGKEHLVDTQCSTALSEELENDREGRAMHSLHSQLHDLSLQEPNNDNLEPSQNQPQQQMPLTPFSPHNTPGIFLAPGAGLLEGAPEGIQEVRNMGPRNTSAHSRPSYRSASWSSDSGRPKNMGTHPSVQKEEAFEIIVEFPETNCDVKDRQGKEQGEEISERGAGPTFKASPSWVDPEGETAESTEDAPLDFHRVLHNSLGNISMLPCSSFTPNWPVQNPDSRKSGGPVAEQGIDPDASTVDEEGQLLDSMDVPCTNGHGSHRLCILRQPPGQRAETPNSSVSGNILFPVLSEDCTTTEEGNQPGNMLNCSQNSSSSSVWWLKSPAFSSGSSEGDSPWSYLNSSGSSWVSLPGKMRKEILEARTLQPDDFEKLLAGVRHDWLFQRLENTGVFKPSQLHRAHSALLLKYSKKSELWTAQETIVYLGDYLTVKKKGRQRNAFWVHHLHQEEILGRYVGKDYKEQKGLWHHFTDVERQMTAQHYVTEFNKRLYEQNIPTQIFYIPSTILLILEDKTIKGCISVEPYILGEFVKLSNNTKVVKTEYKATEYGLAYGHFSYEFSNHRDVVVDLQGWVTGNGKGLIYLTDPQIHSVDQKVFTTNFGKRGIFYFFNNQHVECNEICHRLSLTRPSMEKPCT
Sequence of hALPK1-V1092A (Q96QP1 whole entry V1092A): as the sequence (Q96QP1 whole entry) above, with V1092A counted along it

SMILES: C#C[C@](C)(c1ccc(Cl)cc1)c1csc(NC(=O)c2c(F)ccc(N3CCNCC3)c2F)n1 (stereo in doubt) [Example B075, N-(4-(2-(4-chlorophenyl)but-3-yn-2-yl)thiazol-2-yl)-2,6-difluoro-3-(piperazin-1-yl)benzamide]
- IC50 (ALPK1; [2]): 308 nM
- IC50 (hALPK1-V1092A): 13000 nM

SMILES: C#CC(C)(c1ccc(OC)cc1)c1csc(NC(=O)c2c(F)cc(N3CCNCC3CO)cc2F)n1 (centres unmarked) [Example B100, 2,6-difluoro-4-[2-(hydroxymethyl)piperazin-1-yl]-N-[4-[1-(4-methoxyphenyl)-1-methyl-prop-2-ynyl]thiazol-2-yl]benzamide]
- IC50 (ALPK1; [2]): 21 nM
- IC50 (hALPK1-V1092A): 429 nM

SMILES: COC[C@@](C)(c1ccccc1)c1csc(NC(=O)c2c(F)cc(N3CCNCC3)cc2F)n1 [Example C018, (S)-2,6-difluoro-N-(4-(1-methoxy-2-phenylpropan-2-yl)thiazol-2-yl)-4-(piperazin-1-yl)benzamide]
- IC50 (ALPK1; [2]): 36 nM
- IC50 (hALPK1-V1092A): 1920 nM

SMILES: C#Cc1ccc(C(C)(C#C)c2csc(NC(=O)c3c(F)cc(N4CCNCC4)cc3F)n2)cc1 (centres unmarked) [Example C042, N-[4-[1-(4-ethynylphenyl)-1-methyl-prop-2-ynyl]thiazol-2-yl]-2,6-difluoro-4-piperazin-1-yl-benzamide]
- IC50 (ALPK1; [2]): 101 nM
- IC50 (hALPK1-V1092A): 225 nM

SMILES: CC#CC(C)(c1ccc(Cl)cc1)c1csc(NC(=O)c2c(F)cc(N3CCNCC3)cc2F)n1 (centres unmarked) [Example C039, N-(4-(2-(4-chlorophenyl)pent-3-yn-2-yl)thiazol-2-yl)-2,6-difluoro-4-(piperazin-1-yl)benzamide]
- IC50 (ALPK1; [2]): 36 nM
- IC50 (hALPK1-V1092A): 959 nM

SMILES: C#C[C@@](C)(c1ccc(Cl)c(F)c1)c1csc(NC(=O)c2c(F)cc(N3CCNCC3)cc2F)n1 (stereo in doubt) [Example C038, N-(4-(2-(4-chloro-3-fluorophenyl)but-3-yn-2-yl)thiazol-2-yl)-2,6-difluoro-4-(piperazin-1-yl)benzamide]
- IC50 (ALPK1; [2]): 17 nM
- IC50 (hALPK1-V1092A): 352 nM

SMILES: C#C[C@](C)(c1ccc(C)cc1)c1csc(NC(=O)c2c(F)cc(N3CCNCC3)cc2F)n1 (stereo in doubt) [Example C040, 2,6-difluoro-N-[4-[1-methyl-1-(p-tolyl)prop-2-ynyl]thiazol-2-yl]-4-piperazin-1-yl-benzamide]
- IC50 (ALPK1; [2]): 29 nM
- IC50 (hALPK1-V1092A): 68 nM

SMILES: C#C[C@@](C)(c1ccc(F)cc1)c1csc(NC(=O)c2c(F)cc(N3CCNCC3)cc2F)n1 (stereo in doubt) [Example C035, 2,6-difluoro-N-(4-(2-(4-fluorophenyl)but-3-yn-2-yl)thiazol-2-yl)-4-(piperazin-1-yl)benzamide]
- IC50 (ALPK1; [2]): 19 nM
- IC50 (hALPK1-V1092A): 67 nM

SMILES: C#C[C@@](C)(c1ccc(Cl)cc1)c1csc(NC(=O)c2ccc(N3CCNCC3)cc2)n1 (stereo in doubt) [Example B067, N-(4-(2-(4-chlorophenyl)but-3-yn-2-yl)thiazol-2-yl)-4-(piperazin-1-yl)benzamide]
- IC50 (ALPK1; [2]): 90 nM
- IC50 (hALPK1-V1092A): 215 nM

SMILES: C#C[C@](C)(c1ccc(Cl)cc1)c1csc(NC(=O)c2ccc(N3CCNCC3)cc2)n1 (stereo in doubt) [Example B068, N-(4-(2-(4-chlorophenyl)but-3-yn-2-yl)thiazol-2-yl)-4-(piperazin-1-yl)benzamide]
- IC50 (ALPK1; [2]): 530 nM
- IC50 (hALPK1-V1092A): 27100 nM

SMILES: C#CC(C)(c1ccc(F)cc1)c1csc(NC(=O)c2c(F)cc(N3CCNCC3CO)cc2F)n1 (centres unmarked) [Example B099, 2,6-difluoro-N-[4-[1-(4-fluorophenyl)-1-methyl-prop-2-ynyl]thiazol-2-yl]-4-[2-(hydroxymethyl)piperazin-1-yl]benzamide]
- IC50 (ALPK1; [2]): 30 nM
- IC50 (hALPK1-V1092A): 427 nM

SMILES: CC(c1ccccc1)(c1ccc(Cl)cc1)c1csc(NC(=O)c2c(F)cc(N3CCNCC3)cc2F)n1 (centres unmarked) [Example C046, N-(4-(1-(4-chlorophenyl)-1-phenylethyl)thiazol-2-yl)-2,6-difluoro-4-(piperazin-1-yl)benzamide]
- IC50 (ALPK1; [2]): 377 nM
- IC50 (hALPK1-V1092A): 4450 nM

SMILES: C#C[C@@](C)(c1ccc(OC)cc1)c1csc(NC(=O)c2c(F)cc(N3CCNCC3)cc2F)n1 (stereo in doubt) [Example C048, 2,6-difluoro-N-(4-(2-(4-methoxyphenyl)but-3-yn-2-yl)thiazol-2-yl)-4-(piperazin-1-yl)benzamide]
- IC50 (ALPK1; [2]): 16 nM
- IC50 (hALPK1-V1092A): 5570 nM

SMILES: C#C[C@@](C)(c1ccc(C)cc1)c1csc(NC(=O)c2c(F)cc(N3CCNCC3)cc2F)n1 (stereo in doubt) [Example C041, 2,6-difluoro-N-[4-[1-methyl-1-(p-tolyl)prop-2-ynyl]thiazol-2-yl]-4-piperazin-1-yl-benzamide]
- IC50 (ALPK1; [2]): 7 nM
- IC50 (hALPK1-V1092A): 954 nM

SMILES: C#C[C@@](C)(c1ccc(Cl)cc1)c1csc(NC(=O)c2c(F)cc(N3CCN(C)CC3)cc2F)n1 [Example C011, (S)-N-(4-(2-(4-chlorophenyl)but-3-yn-2-yl)thiazol-2-yl)-2,6-difluoro-4-(4-methylpiperazin-1-yl)benzamide]
- IC50 (ALPK1; [2]): 18 nM
- IC50 (hALPK1-V1092A): 353 nM

SMILES: C#C[C@@](C)(c1ccc(Cl)cc1)c1csc(NC(=O)c2c(F)ccc(N3CCNCC3)c2F)n1 (stereo in doubt) [Example B076, N-(4-(2-(4-chlorophenyl)but-3-yn-2-yl)thiazol-2-yl)-2,6-difluoro-3-(piperazin-1-yl)benzamide]
- IC50 (ALPK1; [2]): 85 nM
- IC50 (hALPK1-V1092A): 128 nM

SMILES: C#C[C@](C)(c1ccc(F)cc1)c1csc(NC(=O)c2c(F)cc(N3CCNCC3)cc2F)n1 (stereo in doubt) [Example C034, 2,6-difluoro-N-(4-(2-(4-fluorophenyl)but-3-yn-2-yl)thiazol-2-yl)-4-(piperazin-1-yl)benzamide]
- IC50 (ALPK1; [2]): 40 nM
- IC50 (hALPK1-V1092A): 277 nM

SMILES: C#CC(C)(c1ccc(OC)cc1)c1csc(NC(=O)NCCO)n1 (centres unmarked) [Example A168, 1-(2-hydroxyethyl)-3-(4-(2-(4-methoxyphenyl)but-3-yn-2-yl)thiazol-2-yl)urea]
- IC50 [1]: 400 nM
- IC50 (ALPK1): 27 nM

SMILES: C#CC(CC)(c1ccc(Br)cc1)c1csc(NC(=O)NCCO)n1 (centres unmarked) [Example A157, 1-(4-(3-(4-bromophenyl)pent-1-yn-3-yl)thiazol-2-yl)-3-(2-hydroxyethyl)urea]
- IC50 [1]: 1360 nM
- IC50 (ALPK1): 22 nM

SMILES: C#C[C@](C)(c1ccc(Cl)cc1)c1csc(NC(=O)N2CC(c3ccc(N4CCNCC4)c(F)c3)C2)n1 [Example A246, (R)-N-(4-(2-(4-chlorophenyl)but-3-yn-2-yl)thiazol-2-yl)-3-(3-fluoro-4-(piperazin-1-yl)phenyl)azetidine-1-carboxamide]
- IC50 [1]: 1590 nM
- IC50 (ALPK1): 29 nM

SMILES: C#C[C@@](C)(c1ccc(Cl)cc1)c1csc(NC(=O)NC[C@H](O)CO)n1 [Example A304, 1-(4-(2-(4-chlorophenyl)but-3-yn-2-yl)thiazol-2-yl)-3-((S)-2,3-dihydroxypropyl)urea]
- IC50 [1]: 520 nM
- IC50 (ALPK1): 90 nM

SMILES: COc1ccc(C(C)(C)c2csc(NC(=O)NCc3cnc(N4CCNCC4)c(F)c3)n2)cc1 [Example A036, 1-((5-fluoro-6-(piperazin-1-yl)pyridin-3-yl)methyl)-3-(4-(2-(4-methoxyphenyl)propan-2-yl)thiazol-2-yl)urea]
- IC50 [1]: 620 nM
- IC50 (ALPK1): 24 nM

SMILES: CC(C)(c1ccc(F)cc1)c1csc(NC(=O)NCc2ccc(N3CCNCC3)cc2)n1 [Example A047, 1-(4-(2-(4-fluorophenyl)propan-2-yl)thiazol-2-yl)-3-(4-(piperazin-1-yl)benzyl)urea]
- IC50 [1]: 2100 nM
- IC50 (ALPK1): 167 nM

SMILES: COc1ccc(C(C)(C)c2csc(NC(=O)NCc3ccc(N4CCNCC4)c(OC(C)C)c3)n2)cc1 [Example A225, 1-(3-isopropoxy-4-(piperazin-1-yl)benzyl)-3-(4-(2-(4-methoxyphenyl)propan-2-yl)thiazol-2-yl)urea]
- IC50 [1]: 1050 nM
- IC50 (ALPK1): 108 nM

SMILES: C#C[C@](C)(c1ccc(Cl)cc1)c1csc(NC(=O)NCCC(C)(C)O)n1 [Example A250, (R)-1-(4-(2-(4-chlorophenyl)but-3-yn-2-yl)thiazol-2-yl)-3-(3-hydroxy-3-methylbutyl)urea]
- IC50 [1]: 1180 nM
- IC50 (ALPK1): 417 nM

SMILES: CC(C)(c1ccc(Br)cc1)c1csc(NC(=O)NCc2ccc(NCCN)cc2)n1 [Example A205, 1-(4-((2-aminoethyl)amino)ben-zyl)-3-(4-(2-(4-bromophenyl)propan-2-yl)thiazol-2-yl)urea]
- IC50 [1]: 1480 nM
- IC50 (ALPK1): 59 nM

SMILES: COc1ccc(C(C)(C)c2csc(NC(=O)NCc3cnc(N4CCN(CCO)CC4)c(F)c3)n2)cc1 [Example A216, 1-((5-fluoro-6-(4-(2-hydroxyethyl)piperazin-1-yl)pyridin-3-yl)methyl)-3-(4-(2-(4-methoxyphenyl)propan-2-yl)thiazol-2-yl)urea]
- IC50 [1]: 1430 nM
- IC50 (ALPK1): 61 nM

SMILES: COc1ccc(C(C)(C)c2csc(NC(=O)NCCCN3CCC(N(C)C)C3)n2)cc1 (centres unmarked) [Example A141, 1-(3-(3-(dimethylamino)pyrrolidin-1-yl)propyl)-3-(4-(2-(4-methoxyphenyl)propan-2-yl)thiazol-2-yl)urea]
- IC50 [1]: 4220 nM
- IC50 (ALPK1): 228 nM

SMILES: COc1ccc(C(C)(C)c2csc(NC(=O)NCc3cncnc3)n2)cc1 [Example A104, 1-(4-(2-(4-methoxyphenyl)propan-2-yl)thiazol-2-yl)-3-(pyrimidin-5-ylmethyl)urea]
- IC50 [1]: 1690 nM
- IC50 (ALPK1): 223 nM

SMILES: COc1ccc(C(C)(C)c2csc(NC(=O)NCCCO)n2)cc1 [Example A133, 1-(3-hydroxypropyl)-3-(4-(2-(4-methoxyphenyl)propan-2-yl)thiazol-2-yl)urea]
- IC50 [1]: 600 nM
- IC50 (ALPK1): 57 nM

SMILES: O=C(NCc1cc(F)c(N2CCNCC2)c(F)c1)Nc1nc(C2(c3ccc(Br)cc3)CCCC2)cs1 [Example A192, 1-(4-(1-(4-bromophenyl)cyclopent-yl)thiazol-2-yl)-3-(3,5-difluoro-4-(piperazin-1-yl)benzyl)urea]
- IC50 [1]: 4340 nM
- IC50 (ALPK1): 106 nM
